Experimental data: ChEMBL document CHEMBL4725332, “The design of a novel near-infrared fluorescent HDAC inhibitor and image of tumor cells” (Bioorg Med Chem, 2020)
Calls of active or inactive are those of the source. The rule behind the calls is not given here.

Legend:
[1] = Chemical stability of compound in PBS buffer assessed as drug degradation at 37 degree C; type: physicochemical
[2] = Drug uptake in human Hela cells assessed as increased fluorescence intensity at 5 to 25 uM for 1 to 24 hrs by fluorescence imaging analysis; type: ADME, cell-based; conditions: dose 1-25 µM, time 1-24 hrs
[3] = target: Histone deacetylase 1 (Homo sapiens, UniProt Q13547); assay: Inhibition of human recombinant HDAC1 expressed in baculovirus infected High5 insect cells using Ac-Lys-Tyr-Lys(e-acetyl)-AMC as substrate incubated for 24 hrs measured after 30 mins by microplate reader based spectrophotometric analysis; set-up: species or system BTI-TN-5B1-4
[4] = tested on: HeLa; assay: Antiproliferation activity against human Hela cells assessed as reduction in cell viability incubated for 72 hrs by MTT assay; type: functional, cell-based
[5] = target: T1, Protein deacetylase HDAC6 (Homo sapiens, UniProt Q9UBN7); assay: Inhibition of human recombinant HDAC6 expressed in baculovirus infected High5 insect cells using Boc-Lys(eacety1)-AMC as substrate incubated for 3 hrs measured after 30 mins by microplate reader based spectrophotometric analysis; set-up: species or system BTI-TN-5B1-4
T1 sequence (Q9UBN7 whole entry): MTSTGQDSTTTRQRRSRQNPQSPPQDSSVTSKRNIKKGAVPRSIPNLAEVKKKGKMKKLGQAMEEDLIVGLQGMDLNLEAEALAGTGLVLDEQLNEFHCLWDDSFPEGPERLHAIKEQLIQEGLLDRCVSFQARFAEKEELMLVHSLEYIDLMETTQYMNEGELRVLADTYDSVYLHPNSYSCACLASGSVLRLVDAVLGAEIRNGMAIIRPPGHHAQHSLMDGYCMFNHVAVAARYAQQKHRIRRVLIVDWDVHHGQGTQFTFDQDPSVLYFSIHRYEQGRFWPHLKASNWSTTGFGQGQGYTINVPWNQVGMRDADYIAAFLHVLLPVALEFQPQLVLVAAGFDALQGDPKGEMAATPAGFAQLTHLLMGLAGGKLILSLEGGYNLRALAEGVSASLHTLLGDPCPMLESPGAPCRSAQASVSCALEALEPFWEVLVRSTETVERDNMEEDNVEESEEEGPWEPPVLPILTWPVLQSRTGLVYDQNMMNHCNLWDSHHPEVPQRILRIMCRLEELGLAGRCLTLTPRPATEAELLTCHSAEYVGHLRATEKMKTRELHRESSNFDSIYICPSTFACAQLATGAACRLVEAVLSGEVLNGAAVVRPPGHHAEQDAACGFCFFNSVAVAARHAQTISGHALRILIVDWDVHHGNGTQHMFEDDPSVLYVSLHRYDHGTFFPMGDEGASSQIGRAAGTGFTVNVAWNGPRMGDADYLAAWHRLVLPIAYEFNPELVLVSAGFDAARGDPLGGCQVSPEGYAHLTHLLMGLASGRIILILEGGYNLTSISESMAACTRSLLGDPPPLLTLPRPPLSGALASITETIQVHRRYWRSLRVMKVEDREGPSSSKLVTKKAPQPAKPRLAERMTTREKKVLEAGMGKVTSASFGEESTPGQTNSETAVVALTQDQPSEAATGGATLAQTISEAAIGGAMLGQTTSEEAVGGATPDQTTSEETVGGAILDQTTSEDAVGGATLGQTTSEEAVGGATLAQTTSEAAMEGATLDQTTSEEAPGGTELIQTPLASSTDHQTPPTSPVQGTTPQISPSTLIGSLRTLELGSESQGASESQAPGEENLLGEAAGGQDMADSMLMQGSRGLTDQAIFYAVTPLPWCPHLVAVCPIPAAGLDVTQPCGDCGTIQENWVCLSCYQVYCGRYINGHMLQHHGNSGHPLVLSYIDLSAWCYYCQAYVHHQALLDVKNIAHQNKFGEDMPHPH

[6] = target: Histone deacetylase 3 (Homo sapiens, UniProt O15379); assay: Inhibition of human recombinant HDAC3 expressed in baculovirus infected High5 insect cells using Ac-Lys-Tyr-Lys(e-acetyl)-AMC as substrate incubated for 24 hrs measured after 30 mins by microplate reader based spectrophotometric analysis; set-up: species or system BTI-TN-5B1-4
[7] = Emission property of the compound assessed as maximum wavelength at 5 uM under pH condition 7.4 at excitation wavelength by fluorescence spectrophotometric method; type: physicochemical
[8] = Drug uptake in human MDA-MB-231 cells assessed as decrease in fluorescence intensity at 25 uM for 1 to 24 hrs by fluorescence imaging analysis; type: ADME, cell-based; conditions: mda-mb-231, 25 µM, time 1-24 hrs
[9] = Emission property of the compound assessed as fluorescence at 5 uM under acidic condition at pH 4 by fluorescence spectrophotometric method; type: physicochemical; conditions: pH 4, 5 µM
[10] = Absorption property of the compound assessed as maximum absorption wavelength at 5 uM under pH condition 7.4 by fluorescence spectrophotometric method; type: physicochemical
[11] = tested on: MDA-MB-231; assay: Antiproliferation activity against human MDA-MB-231 cells assessed as reduction in cell viability incubated for 72 hrs by MTT assay; type: functional, cell-based
[12] = Drug uptake in human MDA-MB-231 cells assessed as increased fluorescence intensity at 5 uM for 1 to 24 hrs by fluorescence imaging analysis; type: ADME, cell-based; conditions: mda-mb-231, 25 µM, time 1-24 hrs

Histone deacetylase 1, sequence (Q13547 whole entry): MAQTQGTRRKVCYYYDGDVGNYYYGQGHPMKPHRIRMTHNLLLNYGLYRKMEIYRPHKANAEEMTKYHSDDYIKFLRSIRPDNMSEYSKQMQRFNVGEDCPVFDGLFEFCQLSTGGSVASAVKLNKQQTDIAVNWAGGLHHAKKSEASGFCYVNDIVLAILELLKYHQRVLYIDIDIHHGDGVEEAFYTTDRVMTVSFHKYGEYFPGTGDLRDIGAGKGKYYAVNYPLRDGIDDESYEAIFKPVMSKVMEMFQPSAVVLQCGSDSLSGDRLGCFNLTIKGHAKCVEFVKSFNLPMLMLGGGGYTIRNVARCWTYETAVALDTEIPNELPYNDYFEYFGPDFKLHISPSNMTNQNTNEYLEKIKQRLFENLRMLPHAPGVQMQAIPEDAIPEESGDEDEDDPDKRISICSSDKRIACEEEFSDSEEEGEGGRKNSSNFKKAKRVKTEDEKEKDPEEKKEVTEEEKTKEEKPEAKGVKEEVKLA
Histone deacetylase 3, sequence (O15379 whole entry): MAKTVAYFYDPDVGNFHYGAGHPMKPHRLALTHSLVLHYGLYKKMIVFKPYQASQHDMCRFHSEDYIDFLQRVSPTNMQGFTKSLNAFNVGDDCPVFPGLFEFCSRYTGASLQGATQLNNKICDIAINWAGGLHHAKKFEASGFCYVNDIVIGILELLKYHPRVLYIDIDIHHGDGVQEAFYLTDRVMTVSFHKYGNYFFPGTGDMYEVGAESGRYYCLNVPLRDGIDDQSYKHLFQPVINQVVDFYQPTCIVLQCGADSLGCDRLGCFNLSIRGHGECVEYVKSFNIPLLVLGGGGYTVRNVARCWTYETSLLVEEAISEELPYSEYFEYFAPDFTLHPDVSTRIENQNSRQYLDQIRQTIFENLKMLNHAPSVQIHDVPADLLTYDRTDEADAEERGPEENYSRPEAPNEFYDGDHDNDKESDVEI

Stabilty [1]	Drug uptake [2]	IC50 [3]	IC50 [4]	IC50 [5]	IC50 [6]	Activity [7]	Drug uptake [8]	Activity [9]	Activity [10]	IC50 ([11]; MDA-MB-231, 72 h)	Drug uptake [12]	SMILES	Activity [4]	Activity [11]
Stable	Active	0.36 µM	5.91 µM	0.19 µM	0.57 µM	723 nm	Active	Not Active	707 nm	9.2 µM	Active	CC[N+]1=C(/C=C/C2=C3Oc4cc(O)cc(OCCCCCCCC(=O)NO)c4C=C3CCC2)C(C)(C)c2ccccc21.[I-]		
	Not Active	9.69 µM		13.8 µM	11 µM	723 nm	Active	Not Active	707 nm		Not Active	CC[N+]1=C(/C=C/C2=C3Oc4cc(O)cc(OCCCCCCCC(=O)O)c4C=C3CCC2)C(C)(C)c2ccccc21.[I-]	inactive	inactive
